# From patent publication US9315518B2, “Imidazopyridin-2-one derivatives” (Merck Sharp & Dohme Corp., priority 2011, dated 2016)
# Molecular target: recombinant human mGluR2 (Homo sapiens (Human), UniProt Q14416)
# Assay: FLIPR Ca2+ mobilization assay, potentiation of glutamate response
# Assay type: cell-based
# Settings: CHO dhfr- cells expressing human mGluR2 and Gα16; potentiation with EC20 glutamate (900 nM); read-out: hFLIPR pot. EC50
# Method: Inhibition constants are determined as follows. The compounds of the present invention may be tested in a […] (FLIPR) based assay. This assay is a common functional assay to monitor Ca^2+ mobilization in whole cells expressing recombinant receptor coupled with a promiscuous G-protein. CHO dhfr-cells stably expressing recombinant human mGluR2 and Gα16 loaded with Fluo-4 AM (Invitrogen, Carlsbad Calif.) are treated with dose responses of compounds and the Ca^2+ response is monitored on a FLIPR384 (Molecular Devices, Sunnydale Calif.) for agonist activity. The potentiation response is monitored after a subsequent addition of an EC20 concentration of glutamate (900 nM). The maximum calcium response at each concentration of compound for agonist or potentiation are plotted as dose responses and the curves are fitted with a four parameters logistic equation giving EC50 and Hill coefficient using the iterative non linear curve fitting software program.
# recombinant human mGluR2, sequence (Q14416 19-872): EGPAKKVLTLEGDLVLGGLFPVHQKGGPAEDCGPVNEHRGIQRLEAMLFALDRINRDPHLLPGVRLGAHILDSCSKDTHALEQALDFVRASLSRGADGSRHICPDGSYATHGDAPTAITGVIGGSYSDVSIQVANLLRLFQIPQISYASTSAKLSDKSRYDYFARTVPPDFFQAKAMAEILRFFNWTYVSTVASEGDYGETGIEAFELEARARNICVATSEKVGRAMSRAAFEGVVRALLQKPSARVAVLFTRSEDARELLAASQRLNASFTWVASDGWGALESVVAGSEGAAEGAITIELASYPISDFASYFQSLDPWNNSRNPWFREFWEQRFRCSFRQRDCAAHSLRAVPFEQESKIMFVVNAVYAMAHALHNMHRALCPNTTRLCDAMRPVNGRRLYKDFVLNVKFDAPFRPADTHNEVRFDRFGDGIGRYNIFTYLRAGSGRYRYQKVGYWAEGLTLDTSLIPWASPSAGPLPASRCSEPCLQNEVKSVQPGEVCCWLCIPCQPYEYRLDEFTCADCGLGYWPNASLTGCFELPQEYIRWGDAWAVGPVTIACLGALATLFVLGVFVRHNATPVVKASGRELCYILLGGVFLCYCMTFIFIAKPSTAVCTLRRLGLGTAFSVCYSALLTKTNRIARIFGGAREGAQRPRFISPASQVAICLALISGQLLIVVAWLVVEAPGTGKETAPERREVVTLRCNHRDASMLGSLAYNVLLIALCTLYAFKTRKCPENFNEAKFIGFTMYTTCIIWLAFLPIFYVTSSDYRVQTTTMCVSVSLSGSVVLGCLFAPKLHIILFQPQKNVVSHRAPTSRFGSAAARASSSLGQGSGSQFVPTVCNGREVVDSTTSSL
row,SMILES,EC50 [nM]
1,"Cn1c(=O)n(CC(C)(C)C)c2ccc(C3=CC4CCC3CN4C(=O)c3cccnc3)nc21 (stereo not shown) [Compound 2-9, 1-(2,2-dimethylpropyl)-3-methyl-5-[2-(pyridin-3-ylcarbonyl)-2-azabicyclo[2.2.2]oct-5-en-5-yl]-1,3-dihydro-2H-imidazo[4,5-b]pyridin-2-one]",100
2,"Cn1c(=O)n(CC(C)(C)C)c2ccc(C3=CC4CCC3CN4C(=O)C3CC3)nc21 (stereo not shown) [Compound 2-16, 5-[2-(cyclopropylcarbonyl)-2-azabicyclo[2.2.2]oct-5-en-5-yl]-1-(2,2-dimethylpropyl)-3-methyl-1,3-dihydro-2H-imidazo[4,5-b]pyridin-2-one]",64.1
3,"Cn1c(=O)n(CC(C)(C)C)c2ccc(C3=CC4CCC3CN4C(=O)c3ncco3)nc21 (stereo not shown) [Compound 2-34, 1-(2,2-dimethylpropyl)-3-methyl-5-[2-(1,3-oxazol-2-ylcarbonyl)-2-azabicyclo[2.2.2]oct-5-en-5-yl]-1,3-dihydro-2H-imidazo[4,5-b]pyridin-2-one]",22.8
4,"Cn1c(=O)n(CC(C)(C)C)c2ccc(C3=CCC(C(=O)NCc4ncco4)CC3)nc21 (stereo not shown) [Compound 17-15, 4-[1-(2,2-dimethylpropyl)-3-methyl-2-oxo-2,3-dihydro-1H-imidazo[4,5-b]pyridin-5-yl]-N-(1,3-oxazol-2-ylmethyl)cyclohex-3-ene-1-carboxamide]",594
5,"Cn1c(=O)n(CC2CC2(F)F)c2ccc(C3=CC4CCC3CN4C(=O)c3ccon3)nc21 (stereo not shown) [Compound 6-4, 1-[(2,2-Difluorocyclopropyl)methyl]-5-[2-(isoxazol-3-ylcarbonyl)-2-azabicyclo-[2.2.2]oct-5-en-5-yl]-3-methyl-1,3-dihydro-2H-imidazo[4,5-b]pyridin-2-one]",29
6,"Cn1c(=O)n(CC(C)(C)C)c2ccc(C3=CC4CCC3CN4C(=O)Cn3cncn3)nc21 (stereo not shown) [Compound 2-22, 1-(2,2-dimethylpropyl)-3-methyl-5-[2-(1H-1,2,4-triazol-1-ylacetyl)-2-azabicyclo[2.2.2]oct-5-en-5-yl]-1,3-dihydro-2H-imidazo[4,5-b]pyridin-2-one]",56.1
7,"Cn1c(=O)n(CC(C)(C)C)c2ccc(C3=CC4CN(C(=O)C5(O)CCC5)CC4C3)nc21 (stereo not shown) [Compound 8-14, 1-(2,2-dimethylpropyl)-5-{2-[(1-hydroxycyclobutyl)carbonyl]-1,2,3,3a,4,6a-hexahydrocyclopenta[c]pyrrol-5-yl}-3-methyl-1,3-dihydro-2H-imidazo[4,5-b]pyridin-2-one]",134
8,"Cn1c(=O)n(CC(C)(C)C)c2ccc(C3CC4CCC3CN4C(=O)c3ccon3)nc21 (stereo not shown) [Compound 5-2, 1-(2,2-Dimethylpropyl)-5-[2-(isoxazol-3-ylcarbonyl)-2-azabicyclo[2.2.2]-oct-5-yl]-3-methyl-1,3-dihydro-2H-imidazo[4,5-b]pyridin-2-one]",322
9,"Cn1c(=O)n(CC(C)(C)C)c2ccc(C3=CC4CN(C(=O)C5(O)CCN(C(=O)OC(C)(C)C)C5)CC4C3)nc21 (stereo not shown) [Compound 8-6, tert-butyl 3-({5-[1-(2,2-dimethylpropyl)-3-methyl-2-oxo-2,3-dihydro-1H-imidazo[4,5-b]pyridin-5-yl]-3,3a,4,6a-tetrahydrocyclopenta[c]pyrrol-2(1H)-yl}carbonyl)-3-hydroxypyrrolidine-1-carboxylate]",513
10,"Cn1c(=O)n(CC(C)(C)C)c2ccc(C3CC4CN(C(=O)c5ncc[nH]5)CC4C3)nc21 (stereo not shown) [Compound 11-5, 1-(2,2-dimethylpropyl)-5-[2-(1H-imidazol-2-ylcarbonyl)octahydrocyclo-penta[c]pyrrol-5-yl]-3-methyl-1,3-dihydro-2H-imidazo[4,5-b]pyridin-2-one]",391
11,"Cn1c(=O)n(CC(C)(C)C)c2ccc(C3=CC4CN(C(=O)CO)CC4C3)nc21 (stereo not shown) [Compound 8-9, 1-(2,2-dimethylpropyl)-5-[2-(hydroxyacetyl)-1,2,3,3a,4,6a-hexahydrocyclopenta[c]pyrrol-5-yl]-3-methyl-1,3-dihydro-2H-imidazo[4,5-b]pyridin-2-one]",270
12,Cn1c(=O)n(CC(C)(C)C)c2ccc(C3=CC4CN(C(=O)c5ncco5)CC4C3)nc21 (stereo not shown) [Compound 8-38],17.9
13,"Cn1c(=O)n(CC(C)(C)C)c2ccc(C3=CC4CCC3CN4C(=O)c3csnn3)nc21 (stereo not shown) [Compound 2-8, 1-(2,2-dimethylpropyl)-3-methyl-5-[2-(1,2,3-thiadiazol-4-ylcarbonyl)-2-azabicyclo[2.2.2]oct-5-en-5-yl]-1,3-dihydro-2H-imidazo[4,5-b]pyridin-2-one]",28.1
14,"Cn1c(=O)n(CC2CC2(F)F)c2ccc(C3=CC4CN(C(=O)c5ncco5)CC4C3)nc21 (stereo not shown) [Compound 14-6, 1-[(2,2-difluoro-cyclopropyl)methyl]-3-methyl-5-[2-(1,3-oxazol-2-ylcarbonyl)-1,2,3,3a,4,6a-hexahydrocyclo-penta[c]pyrrol-5-yl]-1,3-dihydro-2H-imidazo[4,5-b]pyridin-2-one]",123

# More lines, now with the values ahead:
row,EC50 [nM],SMILES
1,333,"Cn1c(=O)n(CC(C)(C)C)c2ccc(C3=CCC(NC(=O)C4CCCO4)CC3)nc21 (stereo not shown) [Compound 17-20, N-{4-[1-(2,2-dimethylpropyl)-3-methyl-2-oxo-2,3-dihydro-1H-imidazo[4,5-b]pyridin-5-yl]cyclohex-3-en-1-yl}tetrahydrofuran-2-carboxamide]"
2,43.2,"Cn1c(=O)n(CC(C)(C)C)c2ccc(C3CCC(C)(C)C(NC(=O)c4cnsn4)C3)nc21 (stereo not shown) [Compound 18-200, N-{5-[1-(2,2-dimethylpropyl)-3-methyl-2-oxo-2,3-dihydro-1H-imidazo[4,5-b]pyridin-5-yl]-2,2-dimethylcyclohexyl}-1,2,5-thiadiazole-3-carboxamide]"
3,14.4,"CC1C(c2ccc3c(n2)N(C)S(=O)(=O)N3CC2CC2(F)F)C1C(C)(C)O (stereo not shown) [Compound 34-3, 2-(2-{1-[(2,2-difluorocyclopropyl)methyl]-3-methyl-2,2-dihydro[1,2,5]thiadiazolo[3,4-b]pyridin-5-yl}-3-methylcyclopropyl) propan-2-ol]"
4,951,"Cn1cnc(S(=O)(=O)N2CCCC(c3ccc4c(n3)n(C)c(=O)n4CC(C)(C)C)C2)c1 (stereo not shown) [Compound 19-4, 1-(2,2-dimethylpropyl)-3-methyl-5-{1-[(1-methyl-1H-imidazol-4-yl)sulfonyl]piperidin-3-yl}-1,3-dihydro-2H-imidazo[4,5-b]pyridin-2-one]"
5,1180,"Cn1cnc(C(=O)NCCCCc2ccc3c(n2)n(C)c(=O)n3CC(C)(C)C)c1 [Compound 38-5, N-{4-[1-(2,2-dimethylpropyl)-3-methyl-2-oxo-2,3-dihydro-1H-imidazo[4,5-b]pyridin-5-yl]butyl}-1-methyl-1H-imidazole-4-carboxamide]"
6,986,"Cn1c(=O)n(CC(C)(C)C)c2ccc(C3CCC(C)(C)C(NC(=O)c4ccc(OC(F)(F)F)cc4)C3)nc21 (stereo not shown) [Compound 18-42, N-{5-[1-(2,2-dimethylpropyl)-3-methyl-2-oxo-2,3-dihydro-1H-imidazo[4,5-b]pyridin-5-yl]-2,2-dimethylcyclohexyl}-4-(trifluoro-methoxy)benzamide]"
7,359,"CN1c2nc(C3CCCNC3)ccc2N(CC2CC2(F)F)S1(=O)=O (stereo not shown) [Compound 25-5, 1-[(2,2-difluorocyclopropyl)methyl]-3-methyl-5-piperidin-3-yl-1,3-dihydro[1,2,5] thiadiazolo[3,4-b]pyridine 2,2-dioxide]"
8,2190,"Cn1c(=O)n(CC(C)(C)C)c2ccc(C3CCC(C)(C)C(NC(=O)CCn4cncn4)C3)nc21 (stereo not shown) [Compound 18-10, N-{5-[1-(2,2-dimethylpropyl)-3-methyl-2-oxo-2,3-dihydro-1H-imidazo[4,5-b]pyridin-5-yl]-2,2-dimethylcyclohexyl}-3-(1H-1,2,4-triazol-1-yl)propanamide]"
9,48.5,"CN1c2nc(C3=CC4CN(C(=O)C(C)(C)O)CC4C3)ccc2N(CC2CC2(F)F)S1(=O)=O (stereo not shown) [Compound 24-7, 1-[5-{1-[(2,2-difluorocyclopropyl)methyl]-3-methyl-2,2-dioxido-1,3-dihydro[1,2,5]thiadiazolo[3,4-b]pyridin-5-yl}-3,3a,4,6a-tetrahydrocyclopenta [c]pyrrol-2(1H)-yl]-2-methyl-1-oxopropan-2-ol]"
10,116,"Cc1cccc(S(=O)(=O)NC2CC(c3ccc4c(n3)n(C)c(=O)n4CC(C)(C)C)CCC2(C)C)c1 (stereo not shown) [Compound 19-62, N-{5-[1-(2,2-dimethylpropyl)-3-methyl-2-oxo-2,3-dihydro-1H-imidazo[4,5-b]pyridin-5-yl]-2,2-dimethylcyclohexyl}-3-methylbenzenesulfonamide]"
11,177,"CN1c2nc(C3=CCN(C(=O)c4ccon4)C3)ccc2N(CC2CC2(F)F)S1(=O)=O (stereo not shown) [Compound 24-20, 1-[(2,2-difluorocyclopropyl)methyl]-5-[1-(isoxazol-3-ylcarbonyl)-2,5-dihydro-1H-pyrrol-3-yl]-3-methyl-1,3-dihydro[1,2,5] thiadiazolo[3,4-b]pyridine 2,2-dioxide]"
